Results on 21 compounds are retold here after patent publication US7220769B2, “Azolylbenzamides and analogues and their use for treating osteoporosis” (Nikem Research S.R.L., priority 1999, dated 2007).

In the first data set the test system is osteoclast proton pump. To be noted: membrane vesicles from avian osteoclasts, ATP-driven acidification, acridine orange quench; cited from earlier work.
In the case of `CCN1C(=O)C=CC1=O` [N-ethylmaleimide], the “proton transport inhibited / not inhibited” value is given as “inhibited”.

For `C[C@@H]1O[C@@H](O[C@H]2C[C@@H](O)[C@]3(CO)[C@H]4[C@H](O)C[C@]5(C)[C@@H](C6=CC(=O)OC6)CC[C@]5(O)[C@@H]4CC[C@]3(O)C2)[C@H](O)[C@H](O)[C@H]1O` [ouabain], the “proton transport inhibited / not inhibited” value is “not inhibited”.

`Cc1nc2c(OCc3ccccc3)cccn2c1CC#N` [SCH 28080]: the “proton transport inhibited / not inhibited” value is given as “not inhibited”.

For `CO/C1=C\C(C)=C\[C@@H](C)[C@@H](O)[C@@H](C)C/C(C)=C/C=C/[C@H](OC)[C@@H]([C@@H](C)[C@@H](O)[C@H](C)[C@@]2(O)C[C@@H](O)[C@H](C)[C@@H](C(C)C)O2)OC1=O` [bafilomycin A1], the “proton transport inhibited / not inhibited” value is listed as “inhibited”.

Take `[Na+].[Na+].[Na+].[O]=[V]([O-])([O-])[O-]` [sodium orthovanadate]: the “proton transport inhibited / not inhibited” value is recorded as “not inhibited”.

Test system in a further data set: not given
Settings: not given
One may read the melting point as the temperature of the solid-liquid transition. As for `COc1cc(-c2nc3cc(Cl)c(Cl)cc3[nH]2)c(OC)cc1C(=O)NC1CC(C)(C)NC(C)(C)C1` [Example 18, 4-(5,6-Dichlorobenzimidazol-2-yl)-N-(2,2,6,6-tetramethylpiperidin-4-yl)-2,5-dimethoxybenzamide], the melting point was over 250 °C.

`Cc1cc(C(=O)NC2CC(C)(C)NC(C)(C)C2)ccc1-c1nc2cc(Cl)c(Cl)cc2[nH]1` [Example 13, 4-(5,6-Dichlorobenzimidazol-2-yl)-N-(2,2,6,6-tetramethylpiperidin-4-yl)-3-methylbenzamide] gave a melting point of over 250 °C.

`COc1cc(C(=O)NCCCN2CCN(c3ncccn3)CC2)ccc1-c1nc2cc(Cl)c(Cl)cc2[nH]1` [Example 7, 4-(5,6-Dichlorobenzimidazol-2-yl)-N-[3-[4-(2-pyrimidinyl)piperazin-1-yl]propyl]-3-methoxybenzamide]: the melting point fell in the range of 255 to 258 °C.

The compound `COc1cc(C(=O)NC2CC(C)(C)N(C)C(C)(C)C2)ccc1-c1nc2cc(Cl)c(Cl)cc2n1C` [Example 5, 4-(5,6-Dichloro-1-methylbenzimidazol-2-yl)-N-(1,2,2,6,6-pentamethylpiperidin-4-yl)-3-methoxybenzamide] showed a melting point of 178 to 180 °C.

On to `CCOc1cc(C(=O)NC2CC(C)(C)NC(C)(C)C2)ccc1-c1nc2ccc(Cl)cc2[nH]1` [Example 19, 4-(5-Chlorobenzimidazol-2-yl)-N-(2,2,6,6-tetramethylpiperidin-4-yl)-3-ethoxybenzamide], for which the melting point fell in the range of 222 to 225 °C.

`CN1C(C)(C)CC(NC(=O)c2ccc(-c3nc4cc(Cl)c(Cl)cc4[nH]3)cc2)CC1(C)C` [Example 1, 4-(5,6-Dichlorobenzimidazol-2-yl)-N-(1,2,2,6,6-pentamethylpiperidin-4-yl)benzamide]: the melting point is over 280 °C.

As for `COc1cc(C(=O)N(C)C2CC(C)(C)NC(C)(C)C2)ccc1-c1nc2cc(Cl)c(Cl)cc2[nH]1` [Example 11, 4-(5,6-Dichlorobenzimidazol-2-yl)-N-(2,2,6,6-tetramethylpiperidin-4-yl)-N-methyl-3-methoxybenzamide], the melting point was 240 to 242 °C.

With `CN1C(C)(C)CC(NC(=O)c2ccc(-c3nc4cc(Cl)ccc4[nH]3)cc2)CC1(C)C` [Example 2, 4-(5-Chlorobenzimidazol-2-yl)-N-(1,2,2,6,6-pentamethylpiperidin-4-yl)-benzamide], the melting point is over 250 °C.

Compound `COc1cc(-c2nc3cc(Cl)c(Cl)cc3[nH]2)c(OC)cc1C(=O)NC1CC(C)(C)N(C)C(C)(C)C1` [Example 17, 4-(5,6-Dichlorobenzimidazol-2-yl)-N-(1,2,2,6,6-pentamethylpiperidin-4-yl)-2,5-dimethoxybenzamide] returned a melting point of over 250 °C.

As to `COc1cc(C(=O)NC2CC(C)(C)N(C)C(C)(C)C2)ccc1-c1nc2cc(Cl)c(Cl)cc2[nH]1` [Example 4, 4-(5,6-Dichlorobenzimidazol-2-yl)-N-(1,2,2,6,6-pentamethylpiperidin-4-yl)-3-methoxybenzamide], the melting point lay in the range of 285 to 286 °C.

Compound `CCOc1cc(C(=O)Nc2cccnc2)ccc1-c1nc2cc(Cl)c(Cl)cc2[nH]1` [Example 15, 4-(5,6-Dichlorobenzimidazol-2-yl)-N-(3-pyridyl)-3-ethoxybenzamide] yielded a melting point of over 260 °C.

Turning to `CN1C(C)(C)CC(NC(=O)c2ccc(-c3nc4cc(Cl)c(Cl)cc4[nH]3)c(O)c2)CC1(C)C` [Example 3, 4-(5,6-Dichlorobenzimidazol-2-yl)-N-(1,2,2,6,6-pentamethylpiperidin-4-yl)-3-hydroxybenzamide], the melting point was over 250 °C.

`CCOc1cc(C(=O)NCCCO)ccc1-c1nc2cc(Cl)c(Cl)cc2[nH]1` [Example 16, 4-(5,6-Dichlorobenzimidazol-2-yl)-N-(3-hydroxypropyl)-3-ethoxybenzamide] yielded a melting point of 148 to 150 °C.

`CCOc1cc(C(=O)NC2CC(C)(C)NC(C)(C)C2)ccc1-c1nc2cc(Cl)c(Cl)cc2[nH]1` [Example 6, 4-(5,6-Dichlorobenzimidazol-2-yl)-N-(2,2,6,6-tetramethylpiperidin-4-yl)-3-ethoxybenzamide] returned a melting point of over 280 °C.

The compound `COc1cc(C(=O)NC2CC(C)(C)NC(C)(C)C2)ccc1-c1nc2cc(Cl)c(Cl)cc2[nH]1` [Example 10, 4-(5,6-Dichlorobenzimidazol-2-yl)-N-(2,2,6,6-tetramethylpiperidin-4-yl)-3-methoxybenzamide] gave a melting point of 233 to 235 °C.

In turn, `O=C(NCCCN1CCN(c2ncccn2)CC1)c1ccc(-c2nc3cc(Cl)c(Cl)cc3[nH]2)c(O)c1` [Example 8, 4-(5,6-Dichlorobenzimidazol-2-yl)-N-[3-[4-(2-pyrimidinyl)piperazin-1-yl]propyl]-3-hydroxybenzamide] came in with a melting point of 258 to 260 °C.

The test system of the next data set is osteoclast cultures. To be noted: cited from earlier work.
Regarding `CO/C1=C\C(C)=C\[C@@H](C)[C@@H](O)[C@@H](C)C/C(C)=C/C=C/[C@H](OC)[C@@H]([C@@H](C)[C@@H](O)[C@H](C)[C@@]2(O)C[C@@H](O)[C@H](C)[C@@H](C(C)C)O2)OC1=O` [bafilomycin A1], the inhibit bone resorption entry is given as “able to inhibit bone resorption”.
